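96-well plates; 48 h exposure; 5 concentrations. Endpoints by linear interpolation between flanking doses. Not reached: highest tested concentration assigned. Abbreviation: GI50, concentration required for 50% inhibition of growth. The concentration for full growth arrest is given as TGI.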
Experiments:
Experiment in all cases: DTP human tumour cell line panel, 48 h
[1] = test system: HL-60(TB) leukemia
[2] = test system: M14 melanoma
[3] = test system: MOLT-4 leukemia
[4] = test system: OVCAR-3 ovarian
[5] = test system: OVCAR-4 ovarian
[6] = test system: OVCAR-5 ovarian
[7] = test system: SN12C renal
[8] = test system: SNB-19 CNS
[9] = test system: UACC-257 melanoma
[10] = test system: UO-31 renal

Compound	TGI [1]	TGI [2]	TGI [3]	TGI [4]	TGI [5]	TGI [6]	TGI [7]	TGI [8]	TGI [9]	TGI [10]	GI50 [1]	GI50 [2]	GI50 [3]	GI50 [4]	GI50 [5]	GI50 [6]	GI50 [7]	GI50 [8]	GI50 [9]	GI50 [10]
C/C(NNC(=O)c1ccccc1O)=C1\C=Nc2ccccc2S1	41.9 µM	31.1 µM	> 100 µM	> 100 µM	> 100 µM	> 100 µM	55.6 µM	> 100 µM	> 100 µM	5.68 µM										
N#Cc1ncc(C(Cl)Cl)nc1Cl	> 3.75 µM	2.82 µM	> 6.63 µM	4.59 µM	3.31 µM	4.39 µM	3.79 µM	> 10 µM	2.99 µM	3.17 µM										
C/C=C1/CN2CCC34C(=C(C(=O)OC)C1CC23)Nc1ccc(O)cc14 (stereo not given)	> 100 µM	> 100 µM	> 100 µM	> 100 µM	> 100 µM	> 100 µM	> 100 µM	> 100 µM	> 100 µM	> 100 µM										
CC(=O)NNc1nc(C)c(C(=O)NNC(=O)C(=O)Nc2ccc(Cl)c([N+](=O)[O-])c2)s1	> 100 µM	> 100 µM	54.6 µM	80.8 µM	> 100 µM	> 100 µM	> 100 µM	> 100 µM	> 100 µM	> 100 µM										
CCOC(=O)c1oc2c(OC)ccc3c2c1CCC3	> 100 µM	> 100 µM	> 100 µM	> 100 µM	> 100 µM	> 100 µM	> 100 µM	> 100 µM	10.9 µM	> 100 µM										
COc1ccc(C(=O)/C=C/c2sc(Cl)nc2Cl)cc1	4.63 µM	2.96 µM	13.6 µM	3.48 µM	20.2 µM	13.3 µM	3.19 µM	4.25 µM	12.7 µM	2.9 µM	1950 nM	466 nM	369 nM	1840 nM	7.28 µM	3.01 µM	408 nM	1.99 µM	3.26 µM	1.45 µM
O=C(COc1ccc(/C=C2\Oc3ccc4ccccc4c3C2=O)cc1)c1ccc([N+](=O)[O-])cc1	16.2 µM	40.6 µM	5.56 µM	17.4 µM	8.87 µM	30.7 µM	30.7 µM	35.6 µM	58.5 µM	39.3 µM	2610 nM	12100 nM	1870 nM	4590 nM	2.14 µM	16.4 µM	10500 nM	15.6 µM	18.9 µM	10.6 µM
CCOC(=O)C1(CC(=O)O)CCCC1=O (stereo not given)	> 100 µM	> 100 µM	> 100 µM	> 100 µM	> 100 µM	> 100 µM	> 100 µM	> 100 µM	> 100 µM	> 100 µM										
CN(C)c1ccc(C(=S)c2ccc(N(C)C)cc2)cc1	> 100 µM	> 100 µM	> 100 µM	> 100 µM	> 100 µM	> 100 µM	> 100 µM	> 100 µM	> 100 µM	> 100 µM	4170 nM	3330 nM	6350 nM	3930 nM	16.9 µM	39.1 µM	5910 nM	6.16 µM	16.2 µM	8.92 µM
CC12Nc3ccccc3C1=C(c1ccccc1)CC1C(=O)OC(=O)C12 (stereo not given)	> 100 µM	> 100 µM	> 100 µM	> 100 µM	> 100 µM	> 100 µM	> 100 µM	> 100 µM	> 100 µM	> 100 µM										
CC/C=C\C[C@H]1C/C=C2/C(=O)C=C[C@H]2C/C=C\CCCC(=O)O1	12 µM	8.34 µM	25.1 µM	5.94 µM	9.73 µM	16.8 µM	> 50 µM	11.2 µM	12 µM	11.2 µM	1740 nM	1690 nM	1840 nM	1650 nM	2.81 µM	3.99 µM	2620 nM	5.17 µM	5.04 µM	4.87 µM
C[C@H]1CCC/C=C/C2CC(OC(=O)CN(C)C)CC2C(OC(=O)CN(C)C)/C=C/C(=O)O1 (stereo not given in full)	7.47 µM	4.65 µM	5.44 µM	3.2 µM	34.2 µM	4.05 µM	8.33 µM	> 100 µM	27.5 µM	0.765 µM	682 nM	178 nM	357 nM	428 nM	0.349 µM	0.44 µM	391 nM	2.76 µM	0.342 µM	0.142 µM
C[C@@H]1CC[C@H]2[C@@H](C)C(O)O[C@@H]3O[C@]4(C)CC[C@@H]1[C@]32OO4 (stereo not given in full)	0.517 µM	24.2 µM	10.5 µM	15.6 µM	> 56.7 µM	39.4 µM	> 72.3 µM	> 72.6 µM	> 100 µM	2.31 µM	176 nM	1240 nM	340 nM	431 nM	2.43 µM	0.735 µM	1370 nM	3.39 µM	0.748 µM	0.375 µM
CNC(=O)c1cc(Oc2ccc3nc(NC(=O)Nc4ccc(CN5CCOCC5)c(C(F)(F)F)c4)sc3c2)ccn1	7.41 µM	6.53 µM	> 100 µM	4.16 µM	5.64 µM	6.9 µM	9.36 µM	16.4 µM	5.59 µM	3.94 µM	2700 nM	2480 nM	2570 nM	1790 nM	1.72 µM	2.44 µM	2580 nM	3.82 µM	2.16 µM	1.65 µM
C[C@@H](Nc1nc(N[C@H](C)C(F)(F)F)nc(-c2cccc(Cl)n2)n1)C(F)(F)F	> 100 µM	> 100 µM	> 100 µM	> 100 µM	96.9 µM	> 100 µM	> 100 µM	63.5 µM	> 100 µM	> 100 µM	> 100000 nM	> 100000 nM	> 100000 nM	31500 nM	23.3 µM	> 100 µM	46600 nM	23.3 µM	51.4 µM	51.3 µM
O=C1/C(=C/c2cccnc2)SC(=S)N1Cc1ccco1	> 22 µM	> 100 µM	14.3 µM	10.4 µM	77.6 µM	> 81.7 µM	45 µM	> 100 µM	> 31.5 µM	8.02 µM										
COc1ccc(-c2nn(-c3cccc(Cl)c3)cc2/C=C2\NC(=S)N(c3ccc(Cl)cc3)C2=O)cc1	> 25 µM	10.2 µM	10.7 µM	12.9 µM	7.45 µM	> 25 µM	> 25 µM	> 25 µM	8.55 µM	> 25 µM	8610 nM	4390 nM	4470 nM	5540 nM	3.54 µM	6.31 µM	5480 nM	6.54 µM	3.95 µM	8.53 µM
COc1ccc(-n2cc(-c3cc(OC)c(OC)c(OC)c3)nc2SCc2ccc(Cl)cc2)cc1OC	> 100 µM	> 100 µM	> 100 µM	> 100 µM	> 100 µM	> 100 µM	> 100 µM	> 100 µM	> 100 µM	> 100 µM	78000 nM	> 100000 nM	> 100000 nM	> 100000 nM	71.9 µM	> 100 µM	> 100000 nM	> 100 µM	> 100 µM	27.8 µM
C/C(=N\Nc1ccccc1)c1sc(-c2nc(C)c(/C(C)=N/Nc3ccccc3)s2)nc1C	> 100 µM	25 µM	> 100 µM	59.9 µM	> 100 µM	> 100 µM	> 100 µM	> 100 µM	> 70.4 µM	> 60.7 µM										
O=C1C=CC2(CCCCCCC2=O)CC1 (stereo not given)	> 100 µM	> 100 µM	> 100 µM	> 100 µM	> 100 µM	> 100 µM	> 100 µM	> 100 µM	> 100 µM	> 100 µM										
CC(=O)OC1C[C@H]2C(OC(=O)c3ccccc3)C3C4(OC(C)=O)COC4C[C@H](OC(C)=O)[C@@]3(C)C(OC(C)=O)[C@H](OC(C)=O)C(=C1C)C2(C)C (stereo not given in full)	72 µM	> 100 µM	> 100 µM	> 100 µM	> 100 µM	> 100 µM	> 100 µM	> 100 µM	> 100 µM	79.8 µM										
CCCCCCCCCCC(=O)CCCCCCC(=O)O	18.7 µM	47.9 µM	36.8 µM	40 µM	> 100 µM	51.3 µM	75.2 µM	> 100 µM	> 100 µM	71.9 µM										
Cc1ccccc1/C=C/c1csnn1	39 µM	> 100 µM	> 100 µM	> 100 µM	> 100 µM	> 100 µM	> 100 µM	> 100 µM	> 100 µM	> 100 µM										
O/N=C1/CCCC/C1=C/C=C/c1ccccc1	41.2 µM	40.9 µM	67.1 µM	35.2 µM	> 100 µM	76 µM	33.4 µM	> 100 µM	64 µM	49.4 µM										
